{"source": "patent US20100047227A1", "about": "“NOVEL ANTICANCER CATHEPSIN FORMULATIONS AND ANTICANCER AGENT FOR USE IN COMBINED ANTICANCER THERAPY” (priority 2006, published 2010)", "key": {"[1]": {"system": "ALVA-41 cells tumor in nude mice", "experiment": "tumor growth in nude mice transplanted subcutaneously with ALVA-41 cells", "type": "in vivo", "protocol": "In order to study the growth of primary tumor, 1 ml of PBS solution containing ALVA-41 cells (5×10^6 cells) was injected subcutaneously into the right flank of a male nude mouse. Separately, a solution of mouse melanoma B16 cells (1×10^6 cells) was likely injected subcutaneously into the right flank of an inbred wild-type (WT) mouse, CatE^−/− mouse and CatE^Tg mouse. The size of the tumor was measured with a caliper, and the tumor volume was calibrated by ab^2/2 (where a and b represent a maximum dimension of the central section and a minimum dimension of the central section, respectively). As the size of the heterograft of the ALVA-41 cell reached approximately 100 mm^3 (approximately at day 12 after injection), animals were divided into two groups of each 5 animals. To the two animal groups, respectively, purified cathepsin E (200 μg per kg of body weight per day) and physiological saline were injected into the central portion of the tumor for 16 days. For a measurement for the tumor weight and an immunohistochemical study, […] reached approximately 400 mm^3. For a study on metastasis, melanoma B16 cells (2×10^5 cells in 50 μl of PBS solution) was injected into a tail vein of a Wt mouse, CatE^−/− mouse and CatE^Tg. The mice were then anesthetized at day 22 after injection and killed with a lethal amount of diethylether, followed by removing the lungs and counting the number of black metastasis colonies.\nAs the tumor volume reached ˜[…] after subcutaneous injection, cathepsin E (200 μg/kg/day) or physiological saline was subcutaneously injected into the central portion of the tumor for 16 days. […] Data are represented as an average value±SD of the value obtained from three mice per each group. […] The TUNEL assay was carried out by reacting with diaminobenzidine and counter-staining tissue slices with 1% methyl green. Data represent the result obtained from five mice per group. In the figure, the lower image is an expanded version of the upper image. In the figure, a bar scale represents 50 μm."}, "[2]": {"system": "soluble TRAIL trimers", "experiment": "immunoblot densitometry of soluble TRAIL trimer in culture supernatant", "type": "cell-based, human", "details": "PrE and prostate cancer cell lines treated with cathepsin E", "protocol": "The SDS-PAGE and immunoblot analyses were carried out according to prior art literature (Reference #63). The protein fractioned by SDS-PAGE was migrated on nitrocellulose membrane and was blocked with 5% non-fat dried milk. Then, the nitrocellulose membrane was incubated overnight at 4° C. with a primary antibody, i.e., anti-TRAIL antibody (1/300-fold dilution), anti-TNF-α antibody (1/200-fold dilution), anti-FasL antibody (1/500-fold dilution), anti-DR4 antibody (1/500-fold dilution), anti-DR5 antibody (1/100-fold dilution), anti-DcR1 antibody (1/500-fold dilution), anti-DcR2 antibody (1/500-fold dilution), anti-osteoprotegrin (1/150-fold dilution) or anti-β-actin antibody (1/500-fold dilution). […] The resulting membrane was then washed several times and an immunocomplex was detected with a chemiluminescent reagent. The measurement for density was measured with LAS 1000 analyzer.\n(§1) In this assay, the cells to be tested were incubated to a ˜80% confluent state and then together with cathepsin E (100 μg/ml) or physiological saline at 37° C. and pH 7.4 for 20 hours, followed by measurements for the cell survival rate by a colorimetric assay. […] As an alternative method, a culture medium of each cell line was immunoblot-analyzed using an anti-OPG antibody. […] Thereafter, the immunoblot was analyzed for its concentration in order to determine a quantity of a soluble TRAIL trimer. […]"}, "[3]": {"system": "human prostate epithelium (PrE) cells", "experiment": "cell survival rate of normal human prostate epithelial cells", "type": "cell-based", "details": "100 μg/ml, 37° C., pH 7.4, 20 hours", "protocol": "The survival rate of cells was measured by Cell Counting Kit-8 in accordance with a manufacturer's manual. The method will be described briefly as follows. A 96-well (each 100 μl) plate was inoculated with cells (1×10^4 cells) and incubated for 24 hours, and the cells were incubated in a non-serum culture medium Opti-MEM together with a given concentration of each cathepsin purified from rat stomach (References #27 and #60-#62). Thereafter, the kit reagent (10 μl) was added to each well and the wells were incubated for another 1 hour. After incubation, each well was measured at the absorbance of 450 nm with a microplate reader.\nas §1, with “assay. The cell survival rate is represented as a percentage of a corresponding value to the cells treated with physiological saline, and the data is represented as an average value±SD from the data obtained by four separate experiments.” for “assay.”"}}}
{"substance": "cathepsin E", "values": [{"measurement": "growth of tumor compared to saline control", "setting": "[1]; 200 μg/kg daily for 16 days into central portion of tumor, start at approx. 100 mm^3", "value": "grown in a remarkably controlled manner"}, {"measurement": "weight of the tumor versus control group", "setting": "[1]; 400 μg/kg once per day for 10 days, start at approx. 400 mm^3", "value": "significantly lower"}, {"measurement": "effect of suppressing the tumor", "setting": "[1]; daily dose of 30 μg/kg or lower", "value": "little recognized"}, {"measurement": "effect upon regression of tumor", "setting": "[1]; daily dose of 50 μg/kg", "value": "rather decreased"}, {"measurement": "toxicity toward normal tissues and cells", "setting": "[1]; nude mice administered cathepsin E", "value": "no effect upon toxicity toward normal tissues and cells can be recognized at all"}, {"measurement": "apoptosis cells in tumor by TUNEL stain", "setting": "[1]; tumors after 10 days administration", "value": "a number of the apoptosis cells were observed"}, {"measurement": "order of increasing amounts of soluble TRAIL trimers secreted by treatment", "setting": "[2]", "value": "PrE<PC-3<PPC-1<ALVA-101≦DU145<ALVA-41"}, {"measurement": "influence upon survival and morphology of normal PrE cells", "setting": "[3]", "value": "little exerted influences upon the survival and morphology"}]}
